For experiment [1], the system named is IL-23. The experiment in a line: IL-23 production (ELISA of supernatant) in LPS-stimulated THP-1 cell culture, Examples 1 and 8. It counts as cell-based, human. As for the experimental part: The THP-1 cell line (TIB-202) was obtained from the American Type Culture Collection (ATCC, USA), grown in RPMI 1640 culture medium (Gibco) supplemented with 10% fetal bovine serum (Gibco, UK), 50 U/mL penicillin-streptomycin (Gibco), and 0.05 mM 2-Mercaptoethanol (Gibco). Cultured cells were plated into culture plates in appropriate volumes with a cell density of 500,000 cells/mL.
PCR was performed in duplicate using SYBR Green qPCR master mix (Takara Biomedical Technology Co., Ltd, Dalian, China) on an ABI 7500 Real-Time PCR System (Thermo, USA). The cycling program was as follows: denaturation at 95° C. for 15 s, 40 cycles of 95° C. for 15 s and extension at 60° C. for 60 s, followed by melt curve generation. The ΔΔCT method was used to quantify relative mRNA levels as described in User Bulletin #2 for the ABI PRISM 7700 Sequence Detection System (Applied Biosystems, 2001). The primer sequences used in this study are 5′-[…]-3′ (forward), 5′-[…]-3′ (reverse) for human IL-23p19 (SEQ ID NOs: 4 and 5, respectively); and 5′-ACAGTCCATGCCATCACTG-3′ (forward) and 5′-AGTAGAGGCAGGGATGATG-3′ for human GAPDH as a reference (SEQ ID NOs: 6 and 7, respectively). 24 hours after culture and treatments, supernatants were collected and IL-23 levels measured using the IL-23 Human Uncoated ELISA Kit (ThermoFisher Scientific Inc., USA) according to the manufacturer's instructions. A Varioskan LUX microplate reader (Thermo Fisher, USA) was used for the assay and 4-parameter logistic regression was used for data analysis. Two duplicates per sample were performed and results were averaged.
The anti-IL-23 activity of 2,4-D was compared with the commercially prescribed nonsteroidal anti-inflammatory drugs (NSAIDs:[…], Ibuprofen, and Aspirin) in the LPS-stimulated THP-1 cell culture system described above (Example 1)).
(In general: In an ELISA, binding on a coated surface is turned into a signal by an enzyme label.)

The next experiment concerns TNF-alpha. The experiment in a line: MSU-induced TNF-alpha in knee joint tissue (multiplex microassay). It counts as in vivo, mouse. The note with it: 2,4-D 100 mg/kg, CLC 1 mg/kg, DEX 0.5 mg/kg. The method, then: (§1) Mice (six per group) were treated with 2,4-D (100 mg/kg or 20 mg/kg, i.p.), CLC (1 mg/kg or 0.2 mg/kg, i.p.), DEX (0.5 mg/kg or 0.1 mg/kg, i.p.), or vehicle (20% polyoxyethylenesorbitan monooleate (Tween 80) plus PBS) 30 min before intra-articular stimulus with MSU (100 μg/10 μL, i.a.). Six mice with intra-articular injection with PBS alone served as a negative control.
(§2) Induction of MSU-Induced Knee Joint Inflammation. Male ICR (CD-1) mice (35-45 g, 10-12 weeks) were purchased from VitalRiver Inc (Beijing, China) and were kept in an animal care facility under controlled temperature of 21±1° C., humidity, and on a light/dark cycle, with ad libitum access to water and standard laboratory chow diet. Animal care and handling procedures were approved by the Animal Ethics Committee of GZUCM (Guangzhou University of Chinese Medicine). All efforts were made to minimize animal suffering and to reduce the number of animals used. Joint inflammation was induced by the intra-articular (i.a.) administration of MSU (200 μg/20 μl) into the right and left knee joints of mice under inhaled 3% isoflurane anesthesia. Control animals received an injection (i.a.) of sterile PBS (20 μL).
(§3) Cytokine Measurement. Mice were anesthetized and sacrificed. Knee joints were collected and frozen in liquid nitrogen. Samples were then homogenized in 500 μl of buffer containing protease inhibitors, centrifuged (3600 rpm, 4° C., 15 min) and supernatants were used to determine Th1/Th2/Th17 cytokine levels using a multiplex microassay (Qantibody® mouse TH17 Array 1 kit, Cat. No.: QAM-TH17-1; RayBiotech, Norcross, GA). Results were expressed as picograms (pg) of cytokine/mg of tissue.
(§4) Statistical Analysis. […] For in vitro experiments, microassays were performed in quadruplicate. p<0.05 was considered significant (*p<0.05, **p<0.01, ***p<0.001).

Experiment [2] deals with MSU-induced leukocyte recruitment. Description: MSU-induced leukocyte recruitment to the synovial cavity of knee joint. It counts as in vivo, mouse. Particulars: 20 h; 2,4-D 100 mg/kg, CLC 1 mg/kg, DEX 0.5 mg/kg. The method, then: (§5) 2,4-D, isolated and purified from Chloranthus spicatus (purity≥98%), was purchased from BOC Science (Shirley, NY). Colchicine (CLC) (purity≥96%) and dexamethasone (DEX) (purity≥98%) were purchased from Sigma. Mice (six per group) were treated with 2,4-D (100 mg/kg or 20 mg/kg, i.p.), CLC (1 mg/kg or 0.2 mg/kg, i.p.), DEX (0.5 mg/kg or 0.1 mg/kg, i.p.), or vehicle (20% polyoxyethylenesorbitan monooleate (Tween 80) plus PBS) 30 min before intra-articular stimulus with MSU (100 μg/10 μL, i.a.). Six mice with intra-articular injection with PBS alone served as a negative control.
as §2
Histopathological Analysis. Knee joint was collected 20 h after MSU injection, fixed with 10% paraformaldehyde in PBS, and then decalcified for 10 days with EDTA and embedded in paraffin for histological analysis. […] Results are expressed as leukocytes infiltrate (cell/field) counted at the inflammatory foci within synovial cavity as indicative of synovitis. […]
Statistical Analysis. Data were analyzed using GraphPad Prism statistical software (GraphPad Software, Inc., United States-500.288, version 5.0). Results are presented as means±SEM or SD of measurements made on 6 mice per group, with statistical significance determined by two-way ANOVA, comparing each group to the control (“Model”) group. […]

A further experiment relates to IL-6. The experiment in a line: MSU-induced IL-6 in knee joint tissue (multiplex microassay). The format is in vivo, mouse. The note with it: 2,4-D 100 mg/kg, CLC 1 mg/kg, DEX 0.5 mg/kg. The method, then:
as §1, §2, §3, §4

In a further experiment the test system is IL-10. Description: MSU-induced IL-10 in knee joint tissue (multiplex microassay). Particulars: CLC 1 mg/kg. The format is in vivo, mouse. As for the experimental part:
as §1, §2, §3, §4

Experiment [3] deals with MSU-induced knee joint edema. Description: MSU-induced knee joint edema in mice. It counts as in vivo, mouse. The note with it: 20 h; high dose i.p.: 2,4-D 100 mg/kg, CLC 1 mg/kg, DEX 0.5 mg/kg. As for the experimental part:
as §5
Preparation of monosodium urate crystal (MSU). MSU crystals were prepared as described previously (Ruiz-Miyazawa et al., 2017). Briefly, 800 mg of monosodium urate was dissolved in 155 ml of boiling milli-Q water containing 2N NaOH. After pH adjustment to 8.9, the solution was cooled gradually by stirring at room temperature and crystallized overnight at 4° C. Crystals were collected, and centrifuged at 3,000×g for 2 min at 4° C. The crystals were evaporated and sterilized by heating at 180° C. for 2 h and stored in a sterile environment until use. The load of endotoxin present in the MSU crystals was determined using a ToxinSensor^TM Single Test Kit (GenScript).
as §2
Evaluation of Knee Joint Edema. Knee joint edema was determined with a caliper (Mitutoyo) before (zero time), and after the intra-articular injection with MSU at the times indicated. Knee joint edema was determined for each mouse by the difference between the time points indicated on figures and the zero time (Ruiz-Miyazawa et al, 2017). The edema value is represented as Amm/joint.
Statistical Analysis. Data were analyzed using GraphPad Prism statistical software (GraphPad Software, Inc., United States-500.288, version 5.0). Results are presented as means±SEM or SD of measurements made on 6 mice per group, with statistical significance determined by two-way ANOVA, comparing each group to the control (“Model”) group. For in vitro experiments, microassays were performed in quadruplicate. p<0.05 was considered significant (*p<0.05, **p<0.01, ***p<0.001).

The test system of the next experiment is IL-1ß. Description: MSU-induced IL-1ß in knee joint tissue (multiplex microassay). Particulars: 2,4-D 100 mg/kg, CLC 1 mg/kg, DEX 0.5 mg/kg. The format is in vivo, mouse. As for the experimental part:
as §1, §2, §3, §4

Experiment [4] deals with IL-23. The experiment in a line: IL-23 production (ELISA) in LPS-stimulated THP-1 cells, 2,4-D versus other chalcones, Example 2. It counts as cell-based, human. Particulars: LPS-stimulated THP-1, 24 h. From the text: Molecules tested. Natural 2,4-D, isolated and purified from Chloranthus spicatus (purity HPLC≥98%, Cat. No.: 129742-43-2), was purchased from BOC Science (Shirley, NY). Synthetic 2,4-D (purity HPLC≥98%) was obtained from YIWEI Biotech (Shanghai, China). 2′-hydroxychalcone (2′-HC, purity HPLC≥98%, Cat. No.: 42224-53-3), 4-hydroxychlcone (4-HC, purity HPLC≥98%, Cat. No.: 20426-12-4), 2′,2-dihydroxychalcone (2′,2-DHC, purity HPLC≥98%, Cat. No.: IDF00045_ALDRICH), 2′,3-dihydroxychalcone (2′,3-DHC, purity HPLC≥98%, Cat No.: IDF00047_ALDRICH), 2′,4-dihydroxychalcone (2′,4-DHC, purity HPLC≥98%, Cat. No.: PH011685_ALDRICH), 2′,5′-dihydroxychalcone (2′,5′-DHC, purity HPLC≥98%, No.: IDF00046-1G), and 2′,4′,4-trihydroxychalcone (2′,4′4-THC, purity HPLC≥98%, No.: 38986_SIAL) were purchased from Sigma. 2′,4′-dihydroxychalcone (2′,4′-DHC, purity HPLC≥98%, Cat. No. AB151736) was purchased from abcr GmbH (Karlsruhe, Germany). Isobavachalcone (IBC), 4′-hydroxy-2′6′-dimethoxychalcone (HMC), 2-trifluoromethyl-2′-methoxychalcone (TFM) and Hydroxysafflor yellow A (HYA) were also tested.
Cell culture. THP-1 cells were cultured in RPMI 1640 culture medium (Gibco) supplemented with 10% fetal bovine serum (FBS; Gibco, UK.), 0.05 mM 2-mercaptoethanol, and 1% penicillin/streptomycin. Cells were used in exponential growth phase, with culture medium being replaced with fresh medium 1 day prior to the experiment. The following day, THP-1 cells were plated into 24-well culture plates with a cell density about 800,000 cells/mL and 2 mL per well. 10 ng/mL LPS was used to stimulate the THP-1 cells. RPMI 1640 medium containing 10% FBS and 1% P/S was used as a normal control (NC). 10 mM stock solutions of compounds in DMSO were diluted to 20 μM with complete culture medium just before use. Experiments were performed in quadruplicate.
Enzyme linked immune-sorbent assay (ELISA). At 24 hours, after centrifugation at 300 g for 10 min., 0.5 mL of supernatant was collected and stored at −80° C. until use. IL-23 levels were determined in culture supernatants as described in Example 1.

[5] abbreviates: LPS-stimulated THP-1, Example 8.

In the case of `COc1cc(O)c(OC)c(O)c1C(=O)/C=C/c1ccccc1` [(E) isomer, 2′,4′-dihydroxy-3′,6′-dimethoxychalcone], the “activity of (E) isomer relative to (Z) isomer” value in the experiment on IL-23 [1] is on record as 5 fold. In the experiment with IL-23 [1] (LPS-stimulated THP-1 cell culture), the “inhibition of IL-23, (E) isomer compared with (Z) isomer” value is reported as “greater”.
On to `CC(=O)Oc1ccccc1C(=O)O` [Aspirin, reference compound], for which, in the experiment with IL-23 [1] (setting [5]), the “change of IL-23 production/release in supernatant” value is reported as “no significant change”.
Turning to `COc1cc2c(c(OC)c1OC)-c1ccc(OC)c(=O)cc1[C@@H](NC(C)=O)CC2` [CLC, Colchicine], in the experiment on TNF-alpha, the “decrease of TNF-alpha in knee joint tissue” value is listed as “no effect”. Also, in experiment [2], the “reduction of MSU-induced leukocyte recruitment” value is 1.6 fold. Further, in the experiment with IL-6, the “decrease of IL-6 in knee joint tissue” value was “no effect”. Further, in the experiment on IL-10, the “increase of the expression of IL-10 in knee joint tissue” value came to 1.5 fold. Further, in experiment [3], the “reduction of MSU-induced knee joint edema” value was determined as 32.6%. Also, the “decrease of IL-1ß in knee joint tissue” value in the experiment with IL-1ß is listed as “no effect”.
As to `COc1cc(O)cc(OC)c1C(=O)C=Cc1ccccc1` [HMC, 4′-hydroxy-2′6′-dimethoxychalcone], the “inhibition of IL-23 production” value with IL-23 [4] is “do not inhibit”.
On the same count and under the same terms, as for `CC(C)=CCc1c(O)ccc(C(=O)/C=C/c2ccc(O)cc2)c1O` [IBC, Isobavachalcone], the entry is “do not inhibit”.
Turning to `CC(C)Cc1ccc(C(C)C(=O)O)cc1` (centres unmarked) [Ibuprofen, reference compound], in the experiment with IL-23 [1] (setting [5]), the “reduction of IL-23 release in supernatant” value was 20-25%.
Turning to `COc1cc(O)c(OC)c(O)c1C(=O)/C=C/c1ccccc1` [naturally isolated 2,4-D, 2′,4′-dihydroxy-3′,6′-dimethoxychalcone], the IC50 – broadly, the concentration needed to halve the response being measured – in the experiment with IL-23 [4] (Homo sapiens, read-out: IC50 of inhibition of IL-23) is approximately 2100 nM.
For the compound Hydroxysafflor yellow A [HYA], in the experiment on IL-23 [4], the “inhibition of IL-23 production” value was “do not inhibit”.

These data come from patent publication US20240335395A1, “COMPOSITIONS AND METHODS FOR PREVENTING AND/OR TREATING DISEASE ASSOCIATED WITH IL-23 EXPRESSION” (ALLSPIM, priority 2021, published 2024).
